Here are results for one compound from patent US12304905B2, “Pharmaceutical salts of benzothiazol compounds, polymorphs and methods for preparation thereof” (priority 2019, dated 2025).

What all share (assay type): physicochemical
Data set [1] is described as follows: Solubility tests of mono- and di-hydrochloride in bio-relevant media by HPLC. To be noted: for solubility at 17 h: 37 °C, thermodynamic from solid; for pH: after shaking 17 hrs at 37° C. The method, then:
Solubilities of mono-hydrochloride and di-hydrochloride salt forms in biorelevant media were tested at 37° C. Details of procedures were listed as below: About 15 mg obtained salts were weighed in 2 mL vials, respectively. Then 1.0 mL bio-relevant media (SGF, FaSSIF and FeSSIF) were added into the vials. All the vials were placed on the thermo-mixer and kept at 37° C. (700 r/min). After shaking at 37° C. for 17 hrs, clear solutions obtained by centrifugation were analyzed by HPLC after being diluted by ACN/water (1v/1v) for 10-50 times. And pH value of all systems were measured.

A short description of data set [2]: Dry grinding and wet granulation, physical stability in the milling process. The method, then: Dry grinding and wet granulation were carried out to test physical stability of (1S,2S)-2-fluoro-N-(6-(4-methylpyridin-3-yl)benzo[d]thiazol-2-yl)cyclopropane-1-carboxamide mono-hydrochloride in the milling process.
For dry grinding experiment, about 50 mg of (1S,2S)-2-fluoro-N-(6-(4-methylpyridin-3-yl)benzo[d]thiazol-2-yl)cyclopropane-1-carboxamide mono-hydrochloride was added into mortar and grinded by pestle for about 5 mins. Residual solids were then characterized by XRPD.
For wet granulation experiment, about 50 mg of (1S,2S)-2-fluoro-N-(6-(4-methylpyridin-3-yl)benzo[d]thiazol-2-yl)cyclopropane-1-carboxamide mono-hydrochloride was added into mortar and then several drops of solvent EtOH were added until the solids were fully wetted. Wet solids were grinded by pestle for about 5 mins manually and residual solids were then characterized by XRPD.

Data set [3] can be described thus: Polymorph screening study of mono-hydrochloride (slurry, heating-cooling, slow evaporation, anti-solvent). To be noted: slow evaporation and anti-solvent methods, starting from Pattern I. As for the experimental part:
About 50 mg of (1S,2S)-2-fluoro-N-(6-(4-methylpyridin-3-yl)benzo[d]thiazol-2-yl)cyclopropane-1-carboxamide mono-hydrochloride was suspended into 1.0 mL selected pure or binary solvents in 2.0 mL glass vials. The suspensions were placed on the thermo-mixer with the speed of 700 r/m in at 25° C. and 50° C. After 4 days, slurries and suspensions were centrifuged (8,000 r/m in, 5 mins) and residual solids were dried in the vacuum oven at 35° C. for 4 hrs.
About 50 mg of (1S,2S)-2-fluoro-N-(6-(4-methylpyridin-3-yl)benzo[d]thiazol-2-yl)cyclopropane-1-carboxamide mono-hydrochloride was suspended into 1.0 mL selected pure or binary solvents in 2.0 mL glass vials at 50° C. stirring with the speed of 500 r/min. Then the suspensions were filtered through 0.45 μm filters into clean 2.0 mL glass vials and placed on the hot-plate stirring with 500 r/m in at 50° C. After stirring at 50° C. for 1.5 hrs, the system was cooled to 25° C. After stirring at 25° C. for 16 hrs, some solids came out from MeOH, EtOH/H2O (5/1, v/v) and acetone/H2O (5/1, v/v) systems, while very few solids came out from EtOH system. Then MeOH, EtOH/H2O (5/1, v/v) and acetone/H2O (5/1, v/v) systems were centrifuged at 10000 r/min for 5 mins and residual solids were dried in the vacuum oven at 35° C. for 3 hrs. Obtained dry solids were then characterized by XRPD. […]

Data set [4] in a line: Solubility of mono-hydrochloride in solvents. To be noted: in MeOH, DMF, DMSO and water.

Broadly, the solubility is the concentration that dissolves in the medium under given conditions. Low values mean little dissolved substance, high ones much dissolved substance. For `Cc1ccncc1-c1ccc2nc(NC(=O)[C@@H]3C[C@@H]3F)sc2c1.Cl` [Mono-hydrochloride, (1S,2S)-2-fluoro-N-(6-(4-methylpyridin-3-yl)benzo[d]thiazol-2-yl)cyclopropane-1-carboxamide mono-hydrochloride], the solubility at 17 h in data set [1] (pH 1.88, simulated gastric fluid) is above 13900 µg/mL; in data set [1] (pH 5.07, fessif), 130 µg/mL; in data set [1] (pH 6.62, fassif), 7840 µg/mL. For the same compound, the figures for the pH in data set [1] (FaSSIF (pH = 6.62)), in data set [1] (FeSSIF (pH = 5.07)) and in data set [1] (SGF (pH = 1.88)) were 2.01, 3.83 and 1.89, respectively. Further, the “crystallinity of residual solids (XRPD)” value in data set [2] (after dry grinding) was “decreased”. For the same compound, the “crystalline form (XRPD)” value in data set [2] (after dry grinding or wet granulation process) is “not changed”. In data set [3], the “XRPD pattern in polymorph screening” value is listed as “No new XRPD pattern was found”. In addition, in data set [4], the solubility result is “relatively high solubility”.
